The subject of the test is S. aureus 133. Briefly: Systemic infection with S. aureus 133 (mouse sepsis model). The test is classed as in vivo. As to conditions: female CFW1 mice, i.p. infection, i.v. therapy 30 minutes after the infection, survival over 6 days.

The source of these data is patent US7446102B2, “Antibacterial amide macrocycles IV” (priority 2004, dated 2008).

As for `NCCC[C@H](NC(=O)[C@@H]1Cc2cc(ccc2O)-c2ccc(O)c(c2)C[C@H](N)C(=O)N[C@@H](CCCN)C(=O)N1)C(=O)NCCN` [Example 2, (8S,11S,14S)-14-Amino-N-((1S)-4-amino-1-{[(2-aminoethyl)amino]carbonyl}butyl)-11-(3-aminopropyl)-5,17-dihydroxy-10,13-dioxo-9,12-diazatricyclo[14.3.1.1^2,6]henicosa-1(20),2(21),3,5,16,18-hexaene-8-carboxamide tetra(hydrotrifluoroacetate)], the “therapeutic effect ED100” value is on record as 1.25 mg/kg.
